Read-outs that look alike come from different tables or passages of the source.
Experiments:
Assay type in all cases: in vivo
Spodoptera littoralis = Spodoptera littoralis (Egyptian cotton leafworm) leaf disc spray test; conditions: foliar, 72 h, application rate 200 ppm, cotton leaf discs, 5 L1 larvae, mortality, feeding behavior and growth regulation 3 days after treatment
Description: (§1) These Examples illustrate the insecticidal and acaricidal properties of the compounds of formula (I). The tests were performed as follows:
(§2) Cotton leaf discs were placed on agar in a 24-well microtiter plate and sprayed with test solutions at an application rate of 200 ppm. After drying, the leaf discs were infested with 5 L1 larvae. The samples were checked for mortality, feeding behavior, and growth regulation 3 days after treatment (DAT). The following compound gave at least 80% control of Spodoptera littoralis: A1, A2, A3, A4, A5, A6, A7, A8, A9, A10, A11, A12, A14, A15, A16, A17, A18, A19, A20. Heliothis Virescens (Tobacco Budworm): Eggs (0-24 h old) were placed in 24-well microtiter plate on artificial diet and treated with test solutions at an application rate of 200 ppm (concentration in well 18 ppm) by pipetting. After an incubation period of 4 days, samples were checked for egg mortality, larval mortality, and growth regulation. The following compound gave at least 80% control of Heliothis virescens: A1, A2, A3, A4, A5, A6, A7, A8, A9, A10, A11, A12, A14, A15, A16, A17, A18, A19, A20. Plutella Xylostella (Diamond Back Moth): 24-well microtiter plate (MTP) with artificial diet was treated with test solutions at an application rate of 200 ppm (concentration in well 18 ppm) by pipetting. After drying, the MTP's were infested with L2 larvae (7-12 per well). After an incubation period of 6 days, samples were checked for larval mortality and growth regulation. The following compound gave at least 80% control of Plutella xylostella: A1, A2, A3, A4, A5, A6, A7, A8, A9, A10, A11, A12, A13, A14, A15, A16, A17, A18, A19, A20. Diabrotica Balteata (Corn Root Worm): A 24-well microtiter plate (MTP) with artificial diet was treated with test solutions at an application rate of 200 ppm (concentration in well 18 ppm) by pipetting. After drying, the MTP's were infested with L2 larvae (6-10 per well). After an incubation period of 5 days, samples were checked for larval mortality and growth regulation. The following compound gave at least 80% control of Diabrotica balteata: A1, A2, A3, A4, A5, A6, A7, A8, A9, A10, A11, A12, A13, A14, A16, A17, A18, A19, A20. Thrips Tabaci (Onion Thrips): Sunflower leaf discs were placed on agar in a 24-well microtiter plate and sprayed with test solutions at an application rate of 200 ppm. After drying, the leaf discs were infested with an […] population of mixed ages. After an incubation period of 7 days, samples were checked for mortality. The following compounds gave at least 80% control of Thrips tabaci: A1, A2, A3, A4, A5, A6, A7, A8, A9, A10, A14, A16, A17, A18, A19, A20. Tetranychus Urticae (Two-Spotted Spider Mite): Bean leaf discs on agar in 24-well microtiter plates were sprayed with test solutions at an application rate of 200 ppm. After drying, the leaf discs are infested with mite populations of mixed ages. 8 days later, discs are checked for egg mortality, larval mortality, and adult mortality. The following compounds gave at least 80% control of Tetranychus urticae: A1, A2, A3, A4, A5, A6, A7, A8, A9, A10, A11, A12, A13, A14, A15, A16, A17, A19, A20.

Heliothis virescens = Heliothis virescens (tobacco budworm) egg test on artificial diet; conditions: 96 h, application rate 200 ppm (concentration in well 18 ppm), eggs 0-24 h old on artificial diet, egg mortality, larval mortality and growth regulation after 4 days
Description: as §1, §2

Plutella xylostella = Plutella xylostella (diamond back moth) artificial diet test; conditions: 144 h, application rate 200 ppm (concentration in well 18 ppm), L2 larvae, larval mortality and growth regulation after 6 days
Description: as §1, §2

Diabrotica balteata = Diabrotica balteata (corn root worm) artificial diet test; conditions: 120 h, application rate 200 ppm (concentration in well 18 ppm), L2 larvae, larval mortality and growth regulation after 5 days
Description: as §1, §2

Thrips tabaci = Thrips tabaci (onion thrips) sunflower leaf disc spray test; conditions: foliar, 168 h, application rate 200 ppm, sunflower leaf discs, population of mixed ages, mortality after 7 days
Description: as §1, §2

Tetranychus urticae = Tetranychus urticae (two-spotted spider mite) bean leaf disc spray test; conditions: foliar, 192 h, read-out: control of Tetranychus urticae
Description: as §1, §2

[1] = application rate 200 ppm, bean leaf discs, mite populations of mixed ages, egg, larval and adult mortality 8 days later

Measured: pest or weed control at 200 ppm

Cc1cc(C#N)ccc1C(=O)Nc1cc(C(=O)Nc2c(Cl)cc(C(F)(C(F)(F)F)C(F)(F)C(F)(F)F)cc2Cl)ccc1C#N (stereo not drawn) [A8, 4-cyano-3-(4′-cyano-2′-methylbenzoylamino)-N-[2,6-dichloro-4-(1,2,2,3,3,3-hexafluoro-1-trifluoromethylpropyl)phenyl]benzamide]
≥ 80%: Spodoptera littoralis | Heliothis virescens | Plutella xylostella | Diabrotica balteata | Thrips tabaci | Tetranychus urticae; [1]

COCc1cc(C(F)(C(F)(F)F)C(F)(F)C(F)(F)F)cc(C)c1NC(=O)c1ccc(C#N)c(NC(=O)c2ccc(C#N)cc2C)c1 (stereo not drawn) [A9, 4-cyano-3-(4′-cyano-2′-methyl-benzoylamino)-N-[4-(1,2,2,3,3,3-hexafluoro-1-trifluoromethylpropyl)-2-methoxymethyl-6-methylphenyl]benzamide]
≥ 80%: Spodoptera littoralis | Heliothis virescens | Plutella xylostella | Diabrotica balteata | Thrips tabaci | Tetranychus urticae; [1]

CSc1cc(C(F)(C(F)(F)F)C(F)(F)C(F)(F)F)cc(Cl)c1NC(=O)c1ccc(C#N)c(NC(=O)c2ccc(C#N)cc2C)c1 (stereo not drawn) [A10, N-[2-chloro-4-(1,2,2,3,3,3-hexafluoro-1-trifluoromethylpropyl)-6-methylthiophenyl]-4-cyano-3-(4′-cyano-2′-methylbenzoylamino)benzamide]
≥ 80%: Spodoptera littoralis | Heliothis virescens | Plutella xylostella | Diabrotica balteata | Thrips tabaci | Tetranychus urticae; [1]

Cc1cc(C#N)ccc1C(=O)Nc1cc(C(=O)Nc2c(Cl)cc(C(F)(C(F)(F)F)C(F)(F)F)c(F)c2Cl)ccc1C#N [A14, 4-cyano-3-(4′-cyano-2′-methylbenzoylamino)-N-[2,6-dichloro-3-fluoro-4-(1,2,2,2-tetrafluoro-1-trifluoromethylethyl)phenyl]benzamide]
≥ 80%: Spodoptera littoralis | Heliothis virescens | Plutella xylostella | Diabrotica balteata | Thrips tabaci | Tetranychus urticae; [1]

Cc1cc(C#N)ccc1C(=O)Nc1cc(C(=O)Nc2c(C)cc(C(F)(C(F)(F)F)C(F)(F)C(F)(F)F)cc2C)ccc1C#N (stereo not drawn) [A16, 4-cyano-3-(4′-cyano-2′-methyl-benzoylamino)-N-[2,6-dimethyl-4-(1,2,2,3,3,3-hexafluoro-1-trifluoromethylpropyl)phenyl]benzamide]
≥ 80%: Spodoptera littoralis | Heliothis virescens | Plutella xylostella | Diabrotica balteata | Thrips tabaci | Tetranychus urticae; [1]

Cc1cc(C#N)ccc1C(=O)Nc1cc(C(=O)Nc2c(C)cc(C3(F)C(F)(F)C(F)(F)C(F)(F)C(F)(F)C3(F)F)cc2C)ccc1C#N [A17, 4-cyano-3-(4′-cyano-2′-methylbenzoylamino)-N-[2,6-dimethyl-4-(undecafluorocyclohexyl)phenyl]benzamide]
≥ 80%: Spodoptera littoralis | Heliothis virescens | Plutella xylostella | Diabrotica balteata | Thrips tabaci | Tetranychus urticae

Cc1cc(C#N)ccc1C(=O)Nc1cc(C(=O)Nc2c(Cl)cc(C(F)(C(F)(F)F)C(F)(F)F)cc2Cl)ccc1C#N [A19, 4-cyano-3-(4′-cyano-2′-methylbenzoylamino)-N-[2,6-dichloro-4-(1,2,2,2-tetrafluoro-1-trifluoromethylethyl)phenyl]benzamide]
≥ 80%: Spodoptera littoralis | Heliothis virescens | Plutella xylostella | Diabrotica balteata | Thrips tabaci | Tetranychus urticae; [1]

Cc1cc(C#N)ccc1C(=O)Nc1cc(C(=O)Nc2c(Cl)cc(C(F)(C(F)(F)F)C(F)(F)F)cc2Br)ccc1C#N [A20, 4-cyano-3-(4′-cyano-2′-methylbenzoylamino)-N-[2-bromo-6-chloro-4-(1,2,2,2-tetrafluoro-1-trifluoromethylethyl)phenyl]benzamide]
≥ 80%: Spodoptera littoralis | Heliothis virescens | Plutella xylostella | Diabrotica balteata | Thrips tabaci | Tetranychus urticae; [1]

Source: patent publication US8431514B2, “4-cyano-3-benzoylamino-N-phenyl-benzamides for use in pest control” (Syngenta Crop Protection LLC, priority 2009, dated 2013)
